{
  "source": "patent US11096952B2",
  "about": "“Chemicals and methods to prevent and treat TGF-beta mediated activation of fibroblasts to reduce and treat cancer and fibrosis” (Board of Supervisors of Louisiana State University and …, priority 2016, dated 2021)",
  "key": {"[1]": {"tested_on": "TGF-β-induced fibronectin", "test": "High content imaging (Cellomics) screen for inhibitors of fibronectin induction by TGF-beta in WPMY-1 cells", "assay_type": "cell-based, human", "settings": "WPMY-1, 0-100 uM, TGF-β 24 hour", "experimental": "Inhibitors of CAF Differentiation. A. WPMY-1 cells were plated into each well of 4-chamber slice (for IF), or (C) in a 24 well plate (for western blot analysis). After cell attachment, vehicle or 5 ng/ml TGF-β was added into each well and incubated for 24 h in a 37° C. in a humidified incubator containing 5% CO2. For fluorescence detection (A), cells were fixed and stained with antibody detecting fibronectin and/or stained with DAPI to detect the nuclei. Protein was extracted with boiling Lamaelli buffer for WB (C) and blots were probed with anti-fibronectin or anti-tubulin antibodies. Fibronectin fluorescence (D and E) was measured in the presence or absence of TGF-β in 8 well replicates as follows. Cells were conditioned in serum-free DMEM for 48 hr prior to the addition of TGF-β. Images were acquired using a Cellomics platform with a mask shown in the schematic of (B). The mean of the total fluorescence intensity in each well was calculated from 300 cells per image field and up to 15 fields from each well for fibronectin. […]\nFIGS. 4A-4H: Dose response for identified hits. As shown in the four panels of FIG. 4A, fibronectin fluorescence was measured from images acquired following a Cellomics scan using WPMY-1 cells with concentrations of hits over a range of 0-100 uM. […] Results were expressed as percent inhibition caused by cells treated with TGF-β alone and without testing compound, which was considered as 100%. […]\nFIGS. 14-15 show Table I—Prestwick Library and Table II—NIH Library chemicals respectively. […] A “hit” was defined as a compound causing at least 50% reduction of “Mean_RingTotal Intensity”, which is the fluorescence intensity within the defined ring (see FIG. 2) surrounding nucleus of each cell, summed for 300 cells per image and 15 fields per image. The solvent, 0.1% Dimethyl Sulfoxide (DMSO), with and without TGF-beta served as an internal control on each plate to normalize day-to-day and plate-to-plate variation with DMSO alone as low fluorescence (0%) and TGF-β treated as maximal fluorescence (100%). […]"}, "WPMY-1 fibroblasts": {"tested_on": "WPMY-1 fibroblasts", "test": "Collagen/Matrigel contraction of WPMY-1 fibroblasts", "settings": "WPMY-1 in collagen/Matrigel, 120 nM digoxin, 5 ng/ml TGF-β, 4 days", "procedure": "WPMY-1 (A) and MRC-5 (B) fibroblasts were treated with or without 120 nM digoxin±5 ng/ml TGF-β. […] WPMY-1 (C) and MRC-5 (D) fibroblasts embedded in collagen/Matrigel were treated with or without 120 nM digoxin±5 ng/ml TGF-β for 4 days post seeding. Data are shown as percent contracted area from initial 100% well confluence. *P<0.05 and **P<0.01 indicate significant differences (n=3, Values are ±SEM)."}, "[2]": {"tested_on": "TGF-β-induced CAF differentiation markers", "test": "Real-Time PCR of CAF markers in WPMY-1 fibroblasts", "assay_type": "cell-based, human", "settings": "WPMY-1, 120 nM digoxin, 24 h", "experimental": "In order to determine if digoxin prevents CAF differentiation or simply TGF-β-induced fibronectin expression, the inventors performed quantitative reverse transcriptase-PCR (qPCR) to analyze other CAF markers, including α-SMA, collagen 1a1 (COL1A1), fibroblast activation protein (FAP), and tenascin C (TNC). RNA was extracted from cells treated with 120 nM digoxin±TGF-β for 24 hours. […] Additionally, the inventors observed that α-SMA mRNA expression was already high in WPMY-1 cells and not increased by addition of TGF-β, but was reduced in response to digoxin treatment."}, "[3]": {"tested_on": "TGF-β-induced fibronectin expression", "test": "Western blot of TGF-β-induced fibronectin expression in WPMY-1 fibroblasts", "assay_type": "cell-based, human", "settings": "WPMY-1, 5 ng/ml TGF-β, digoxin 30, 60, 120, 240 nM, 24 hours", "experimental": "Inhibitors of CAF Differentiation. A. WPMY-1 cells were plated into each well of 4-chamber slice (for IF), or (C) in a 24 well plate (for western blot analysis). After cell attachment, vehicle or 5 ng/ml TGF-β was added into each well and incubated for 24 h in a 37° C. in a humidified incubator containing 5% CO2. For fluorescence detection (A), cells were fixed and stained with antibody detecting fibronectin and/or stained with DAPI to detect the nuclei. Protein was extracted with boiling Lamaelli buffer for WB (C) and blots were probed with anti-fibronectin or anti-tubulin antibodies. Fibronectin fluorescence (D and E) was measured in the presence or absence of TGF-β in 8 well replicates as follows. Cells were conditioned in serum-free DMEM for 48 hr prior to the addition of TGF-β. Images were acquired using a Cellomics platform with a mask shown in the schematic of (B). The mean of the total fluorescence intensity in each well was calculated from 300 cells per image field and up to 15 fields from each well for fibronectin. The fold change in fibronectin expression per acquired image (nuclei) is shown (Mean+/−SD).\nPanel A1 is the control, Panel A2 is the TGF-β treated wells and Panel A3 is TGF-β plus PsA at 5 micromolar. Images were captured using the Cellomics imaging system.\n(§1) Representative blots are shown with two exposures of fibronectin to account for strong signal intensity. n=3.\nFIGS. 9A-9B: Increases in intracellular Ca^2+ prevent TGF-β-induced fibronectin expression. (A) WPMY-1 fibroblasts were treated with 2.5 μM thapsigargin±5 ng/ml TGF-β for 24 hours. (B) WPMY-1 fibroblasts were treated with 2.5-10 μM 3′,4′-dichlorobenzamil hydrochloride (DCB)±5 ng/ml TGF-β for 24 hours. Cell lysates were analyzed by western blot for fibronectin expression.\nBecause of the observed low nanomolar effective concentration of the cardiac glycosides, the inventors hypothesized that the cardiac glycosides may be acting by binding to their high affinity target, the Na^+/K^+ ATPase, and that action through the ATPase is the mechanism by which the cardiac glycosides are able to block TGF-β-induced fibronectin expression. It is well documented that inhibition of the Na^+/K^+ ATPase by digoxin leads to increases in intracellular Ca^2+ by preventing Ca^2+ efflux through the Na^+/Ca^2+ exchanger. In order to determine if increased intracellular Ca^2+ is sufficient to prevent TGF-β-induced fibronectin expression, the inventors utilized two compounds that increase intracellular Ca^2+ concentrations. 3′,4′-dichlorobenzamil hydrochloride (DCB) inhibits the Na^+/Ca^2+ exchanger, Na^+ transport, and sarcoplasmic reticulum Ca^2+ release channels. Thapsigargin inhibits the endoplasmic reticulum Ca^+ ATPase, preventing storage of Ca^2+ in the endoplasmic reticulurn, causing an accumulation in the cytoplasm. Cells were treated with 2.5-10 μM of DCB or thapsigargin±TGF-β for 24 hours."}, "[4]": {"tested_on": "TGF-β-induced fibronectin expression", "test": "Western blot of TGF-β-induced fibronectin expression in MRC-5 fibroblasts (5 ng/ml TGF-β)", "assay_type": "cell-based, human", "settings": "MRC-5, 5 ng/ml TGF-β, digoxin 30, 60, 120, 240 nM, 24 hours", "excerpt": "as §1"}},
  "data": [
    {"smiles": "C[C@H]1O[C@@H](O[C@H]2[C@@H](O)C[C@H](O[C@H]3[C@@H](O)C[C@H](O[C@H]4CC[C@@]5(C)[C@H](CC[C@@H]6[C@@H]5C[C@@H](O)[C@]5(C)[C@@H](C7=CC(=O)OC7)CC[C@]65O)C4)O[C@@H]3C)O[C@@H]2C)C[C@H](O)[C@@H]1O", "note": "[digoxin]", "values": [
      {"measurement": "IC50 / potency for inhibition of TGF-β-induced fibronectin (dose response)", "setting": "[1]", "result": "very low IC50"},
      {"measurement": "TGF-β induced contraction of fibroblasts", "setting": "WPMY-1 fibroblasts", "result": "inhibits TGF-β induced contraction of fibroblasts"},
      {"measurement": "TGF-β-induced expression of FN1, COL1A1, FAP, TNC mRNA", "setting": "[2]; 5 ng/ml TGF-β", "result": "prevented TGF-β-induced expression of FN1, COL1A1, FAP, and TNC mRNA"},
      {"measurement": "α-SMA mRNA expression", "setting": "[2]", "result": "reduced"},
      {"measurement": "TGF-β-induced fibronectin expression (western blot)", "setting": "[3]", "result": "prevents TGF-β-induced fibronectin expression in a dose dependent manner"},
      {"measurement": "TGF-β-induced fibronectin expression (western blot)", "setting": "[4]", "result": "prevents TGF-β-induced fibronectin expression in a dose dependent manner"}
    ]}
  ]
}
